The subject of assay [1] is B-cell lymphocytes (CD20+) in human whole blood, CD69 up-regulation. In words: B Cell CD69 Up-Regulation Assay in Human Whole Blood. Conditions: goat anti-human IgM 50 μg/ml stimulation for 20 hrs, CD69hi CD20+ B cells, read-out: HWB, IC50. In kind it is cell-based. The method, then: B Cell CD69 Up-Regulation Assay in Human Whole Blood
Human Blood was collected from healthy volunteers into Vacutainers (BD Biosciences, San Jose, Calif.) containing sodium heparin. Test compound was suspended in DMSO and nine half-log serial dilutions were made. The concentration of DMSO in the assay was 0.5%. […] whole blood was pre-incubated with compound for 30 min and then stimulated with goat anti-human IgM (50 μg/ml, Southern Biotech) for 20 hrs. At the end of the 20 hour incubation, samples were incubated with fluorochrome-conjugated antibodies, PE mouse anti-human CD20 and APC Mouse anti-human CD69 (BD Biosciences), for 30 minutes. Samples were then lysed with Lyse solution (BD) and washed with PBS containing 2% fetal bovine serum (FBS). Fluorescent signals were acquired on flow cytometer LSR II (BD) and data were analyzed by Flow Jo. The percentage of activated (CD69hi) B-cell lymphocytes (CD20+) were determined using un-stimulated (negative control) and stimulated (positive control) wells as reference guidelines. The percentage inhibition was calculated and an IC50 curve was constructed using Xfit in Microsoft Excel with sigmoidal curve fitting.

For assay [2], the target named is Recombinant human full length SYK protein (Homo sapiens (Human), UniProt P43405). The assay can be described thus: SYK kinase assay (33P ATP incorporation into biotinylated peptide). In kind it is biochemical. Conditions: ATP 20 μM. The method, then:
This assay is performed in 96-well format for IC50 determination with 8 samples which represented 10 half log dilutions and a 40 μL reaction volume. […] Phosphorylated products were detected upon termination of reactions with EDTA and the addition of Streptavidin coated beads.
Assay plates: 96-well MultiScreen 0.65 um filter plates (Millipore Cat. No.: MADVNOB10)
final concentration: 50 mM HEPES pH7.5
BSA: Bovine Serum Albumin Fraction V, fatty acid free (Roche Diagnostics GmbH, Cat. No. 9100221) diluted to a final concentration of 0.1%
Assay Dilution Buffer (ADB): 50 mM HEPES, 0.1 mM EGTA, 0.1 mM Na Vanadate, 0.1 mM β-glycerophosphate, 10 mM MgCl2, 1 mM DTT, 0.1% BSA, pH 7.5
Bead wash buffer: 10 g/L PBS (Phosphate buffered saline) with 2M NaCl+1% phosphoric acid.

The structures appear in SMILES notation. Structures can show the parent of a compound that is named as a salt. Bounds are passed on as bounds.

Regarding `N[C@H]1CCCC[C@H]1Nc1ncc2scc(C(=O)Nc3nc4ccccc4[nH]3)c2n1` [Compound 9, 2-((1R,2S)-2-Amino-cyclohexylamino)-thieno[3,2-d]pyrimidine-7-carboxylic acid (1H-benzoimidazol-2-yl)-amide], in assay [1], the IC50 was 50 µM.
In the case of `Cn1nc(NC(=O)c2csc3cnc(N[C@@H]4CCCC[C@@H]4N)nc23)c2ccc(F)cc21` [Compound 15, 2-((1R,2S)-2-Amino-cyclohexylamino)-thieno[3,2-d]pyrimidine-7-carboxylic acid (6-fluoro-1-methyl-1H-indazol-3-yl)-amide trifluoroacetate], in assay [1], the IC50 was 50 µM.
Same read-out and setting: the figure for `Cc1nc(NC(=O)c2csc3cnc(N[C@@H]4CCCC[C@@H]4N)nc23)ccc1C#N` [Compound 4, 2-((1R,2S)-2-Amino-cyclohexylamino)-thieno[3,2-d]pyrimidine-7-carboxylic acid (5-cyano-6-methyl-pyridin-2-yl)-amide] is 50 µM.
Consider `Cn1cnc2c(NC(=O)c3csc4cnc(NCCN)nc34)cccc21` [Compound 12, 2-(2-Amino-ethylamino)-thieno[3,2-d]pyrimidine-7-carboxylic acid (1-methyl-1H-benzoimidazol-4-yl)-amide trifluoroacetate], for which the IC50 in assay [1] came out at 3.06 µM.
Still for that read-out and setting: next, `N[C@H]1CCCC[C@H]1Nc1ncc2scc(C(=O)Nc3nc4ccccc4s3)c2n1` [Compound 8, 2-((1R,2S)-2-Amino-cyclohexylamino)-thieno[3,2-d]pyrimidine-7-carboxylic acid benzothiazol-2-ylamide]: 50 µM; `N[C@H]1COCC[C@H]1Nc1ncc2scc(C(=O)Nc3cccc(-n4nccn4)n3)c2n1` [Compound 5, 2-((3R,4R)-3-Amino-tetrahydro-pyran-4-ylamino)-thieno[3,2-d]pyrimidine-7-carboxylic acid (6-[1,2,3]triazol-2-yl-pyridin-2-yl)-amide]: 3.79 µM.
Regarding `Cn1cc(NC(=O)c2csc3cnc(N[C@@H]4CCOC[C@@H]4N)nc23)cn1` [Compound 21, 2-((3R,4R)-3-Amino-tetrahydro-pyran-4-ylamino)-thieno[3,2-d]pyrimidine-7-carboxylic acid (1-methyl-1H-pyrazol-4-yl)-amide], in assay [1], the 50% inhibitory concentration (IC50) is 5.8 µM.
On the same count and under the same terms, the figure for `N[C@H]1COCC[C@H]1Nc1ncc2scc(C(=O)Nc3cccc(-n4ccnn4)n3)c2n1` [Compound 6, 2-((3R,4R)-3-Amino-tetrahydro-pyran-4-ylamino)-thieno[3,2-d]pyrimidine-7-carboxylic acid (6-[1,2,3]triazol-1-yl-pyridin-2-yl)-amide] is 4.29 µM.
On the same count and under the same terms, next, `CCc1cccc(NC(=O)c2csc3cnc(N[C@@H]4CCOC[C@@H]4N)nc23)n1` [Compound 1, 2-((3R,4R)-3-Amino-tetrahydro-pyran-4-ylamino)-thieno[3,2-d]pyrimidine-7-carboxylic acid (6-ethyl-pyridin-2-yl)-amide]: 5.38 µM; `Cc1ccc(NC(=O)c2csc3cnc(N[C@@H]4CCOC[C@@H]4N)nc23)nc1C` [Compound 25, 2-((3R,4R)-3-Amino-tetrahydro-pyran-4-ylamino)-thieno[3,2-d]pyrimidine-7-carboxylic acid (5,6-dimethyl-pyridin-2-yl)-amide]: 1.67 µM.
Same read-out and setting: next, `Cn1cnc2c(NC(=O)c3csc4cnc(N[C@@H]5CCOC[C@@H]5N)nc34)cccc21` [Compound 11, 2-((3R,4R)-3-Amino-tetrahydro-pyran-4-ylamino)-thieno[3,2-d]pyrimidine-7-carboxylic acid (1-methyl-1H-benzoimidazol-4-yl)-amide hydrochloride]: 1.44 µM.
For `N[C@H]1CCCC[C@H]1Nc1ncc2scc(C(=O)Nc3ccc4ncccc4n3)c2n1` [Compound 10, 2-((1R,2S)-2-Amino-cyclohexylamino)-thieno[3,2-d]pyrimidine-7-carboxylic acid [1,5]naphthyridin-2-ylamide], the IC50 in assay [1] was 3.74 µM.
For `N[C@H]1COCC[C@H]1Nc1ncc2scc(C(=O)Nc3ccc4ccccc4c3)c2n1` [Compound 16, 2-((3R,4R)-3-Amino-tetrahydro-pyran-4-ylamino)-thieno[3,2-d]pyrimidine-7-carboxylic acid naphthalen-2-ylamide], in assay [1], the IC50 came to 3.73 µM.
Still for that read-out and setting: next, `CCc1cc(NC(=O)c2csc3cnc(N[C@@H]4CCCC[C@@H]4N)nc23)cc2cccnc12` [Compound 3, 2-((1R,2S)-2-Amino-cyclohexylamino)-thieno[3,2-d]pyrimidine-7-carboxylic acid (8-ethyl-quinolin-6-yl)-amide]: 0.76 µM.
Same read-out and setting: the figure for `N[C@H]1COCC[C@H]1Nc1ncc2scc(C(=O)Nc3cnc4cccnn34)c2n1` [Compound 23, 2-((3R,4R)-3-Amino-tetrahydro-pyran-4-ylamino)-thieno[3,2-d]pyrimidine-7-carboxylic acid imidazo[1,2-b]pyridazin-3-ylamide] is 1.36 µM; for `N[C@H]1CCCC[C@H]1Nc1ncc2scc(C(=O)Nc3ccc4cnccc4n3)c2n1` [Compound 7, 2-((1R,2S)-2-Amino-cyclohexylamino)-thieno[3,2-d]pyrimidine-7-carboxylic acid [1,6]naphthyridin-2-ylamide] it is 0.55 µM; for `Cc1ccc(NC(=O)c2csc3cnc(N[C@@H]4CCOC[C@@H]4N)nc23)cc1` [Compound 18, 2-((3R,4R)-3-Amino-tetrahydro-pyran-4-ylamino)-thieno[3,2-d]pyrimidine-7-carboxylic acid p-tolylamide] it is 12.2 µM.
Regarding `Cc1cc(NC(=O)c2csc3cnc(N[C@@H]4CCCC[C@@H]4N)nc23)cc2cccnc12` [Compound 2, 2-((1R,2S)-2-Amino-cyclohexylamino)-thieno[3,2-d]pyrimidine-7-carboxylic acid (8-methyl-quinolin-6-yl)-amide], the values for the IC50 in assay [2] and in assay [1] were < 0.001 µM and 0.19 µM, respectively.
As for `N[C@H]1COCC[C@H]1Nc1ncc2scc(C(=O)Nc3cnn4cccnc34)c2n1` [Compound 22, 2-((3R,4R)-3-Amino-tetrahydro-pyran-4-ylamino)-thieno[3,2-d]pyrimidine-7-carboxylic acid pyrazolo[1,5-a]pyrimidin-3-ylamide], the IC50 in assay [1] turned out to be 0.92 µM.
Still for that read-out and setting: the figure for `Cn1ccc(NC(=O)c2csc3cnc(N[C@@H]4CCOC[C@@H]4N)nc23)n1` [Compound 19, 2-((3R,4R)-3-Amino-tetrahydro-pyran-4-ylamino)-thieno[3,2-d]pyrimidine-7-carboxylic acid (1-methyl-1H-pyrazol-3-yl)-amide] is 10.7 µM; for `Cc1cc(C)nc(NC(=O)c2csc3cnc(N[C@@H]4CCOC[C@@H]4N)nc23)c1` [Compound 24, 2-((3R,4R)-3-Amino-tetrahydro-pyran-4-ylamino)-thieno[3,2-d]pyrimidine-7-carboxylic acid (4,6-dimethyl-pyridin-2-yl)-amide] it is 1.53 µM.
